# From US20110230477A1, “COMPOUNDS, PHARMACEUTICAL COMPOSITION AND METHODS FOR USE IN TREATING METABOLIC DISORDERS” (Euroscreen S.A., priority 2008, published 2011)
# Biological target: T1, human GPR43 receptor (hGPR43) (Homo sapiens, UniProt O15552)
# T1 construct: expressed in transfected cells
# T1 sequence (O15552 1-330): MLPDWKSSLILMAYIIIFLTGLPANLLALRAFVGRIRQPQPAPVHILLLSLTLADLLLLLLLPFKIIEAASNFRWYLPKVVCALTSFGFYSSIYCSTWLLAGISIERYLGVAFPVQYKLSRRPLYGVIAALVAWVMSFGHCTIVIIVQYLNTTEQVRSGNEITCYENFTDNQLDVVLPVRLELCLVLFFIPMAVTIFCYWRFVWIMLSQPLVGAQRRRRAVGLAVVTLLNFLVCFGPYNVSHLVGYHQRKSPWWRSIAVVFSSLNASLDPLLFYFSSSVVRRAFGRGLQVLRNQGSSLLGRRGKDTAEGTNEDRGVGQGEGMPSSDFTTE
# Assay: GTPγS binding assay (SPA method)
# Type: biochemical
# Conditions: membranes expressing hGPR43; assay performed in the presence of SCFA; read-out: EC50 (nM) in GTPγ35S assay
# Description: The following assay can be used for determination of GPR43 activation. When a GPCR is in its active state, either as a result of ligand binding or constitutive activation, the receptor couples to a G protein and stimulates the release of GDP and subsequent binding of GTP to the G protein. The alpha subunit of the G protein-receptor complex acts as a GTPase and slowly hydrolyses the GTP to GDP, at which point the receptor normally is deactivated. Activated receptors continue to exchange GDP for GTP. […] The assay uses the ability of GPCR to stimulate [^35S]GTPγS binding to membranes expressing the relevant receptors. The assay can, therefore, be used in the direct identification method to screen candidate compounds to endogenous or not endogenous GPCR.
# Membrane extracts were prepared from cells expressing the human GPR43 receptor (hGPR43) as follows: the medium was aspirated and the cells were scraped from the plates in Ca^++ and Mg^++-free Phosphate-buffered saline (PBS). The cells were then centrifuged for 3 min at 1500 g and the pellets were resuspended in buffer A (15 mM Tris-HCl pH 7.5, 2 mM MgCl2, 0.3 mM EDTA, 1 mM EGTA) and homogenized in a glass homogenizer. […] Protein content was assayed by the Folin method.
# The assay was performed in the presence of SCFA, and was used to determine the activity of the compounds of the invention.
# The [^35S]GTPγS assay was incubated in 20 mM HEPES pH7.4, 100 mM NaCl, 10 μg/ml saponin, 30 mM of MgCl2, 10 μM of GDP, 5 μg membrane-expressing hGPR43, 250 μg of wheatgerm agglutinin beads (Amersham, ref: RPNQ001), a range concentration of compounds (from 30 μM to 1 nM) in a final volume of 100 μl for 30 min at room temperature. The SCFA propionate was used at 1 mM final concentration as positive control. The plates were then centrifuged for 10 minutes at 2000 rpm, incubated for 2 hours at room temperature and counted for 1 min in a scintillation counter (TopCount, PerkinElmer).
row,SMILES,EC50 [nM]
1,"COc1ccc(-c2ccccc2-c2csc(N(C)C(=O)[C@@H](CC(=O)O)CC3CCOCC3)n2)cn1 [Compound 160, (R)-4-((4-(2-(6-methoxypyridin-3-yl)phenyl)thiazol-2-yl)(methyl)amino)-4-oxo-3-((tetrahydro-2H-pyran-4-yl)methyl)butanoic acid]",244
2,"CN(C(=O)[C@@H](CC(=O)O)Cc1ccccc1)c1nc(-c2cccc(OC(F)F)c2)cs1 [Compound 164, (R)-3-benzyl-4-((4-(3-(difluoromethoxy)phenyl)thiazol-2-yl)(methyl)amino)-4-oxobutanoic acid]",161
3,"O=C(O)C[C@@H](CC1CCCC1)C(=O)N(c1nc(-c2cc(Cl)ccc2Cl)cs1)C1CC1 [Compound 166, (R)-3-(cyclopentylmethyl)-4-(cyclopropyl(4-(2,5-dichlorophenyl)thiazol-2-yl)amino)-4-oxobutanoic acid]",13
4,"CN(C(=O)[C@@H](CC(=O)O)CC1CCOCC1)c1nc(-c2cc(Cl)ccc2Cl)cs1 [Compound 168, (R)-4-((4-(2,5-dichlorophenyl)thiazol-2-yl)(methyl)amino)-4-oxo-3-((tetrahydro-2H-pyran-4-yl)methyl)butanoic acid]",43
5,"CN(C(=O)[C@@H](CC(=O)O)CC1CCCC1)c1nc(-c2ccccc2-c2ccc(N3CCOCC3)nc2)cs1 [Compound 171, (R)-3-(cyclopentylmethyl)-4-(methyl(4-(2-(6-morpholinopyridin-3-yl)phenyl)thiazol-2-yl)amino)-4-oxobutanoic acid]",50
6,"O=C(O)C[C@@H](CC1CCCC1)C(=O)N(CCO)c1nc(-c2cc(Cl)ccc2Cl)cs1 [Compound 172, (R)-3-(cyclopentylmethyl)-4-((4-(2,5-dichlorophenyl)thiazol-2-yl)(2-hydroxyethyl)amino)-4-oxobutanoic acid]",355
7,"CN(C(=O)[C@@H](CC(=O)O)Cc1ccccc1)c1nc(-c2cc(Cl)cc(Cl)c2Cl)cs1 [Compound 175, (R)-3-benzyl-4-(methyl(4-(2,3,5-trichlorophenyl)thiazol-2-yl)amino)-4-oxobutanoic acid]",57
8,"COc1ccc(-c2ccc(Cl)c(-c3csc(N(C)C(=O)[C@@H](CC(=O)O)Cc4ccccc4)n3)c2)cn1 [Compound 177, (R)-3-benzyl-4-((4-(2-chloro-5-(6-methoxypyridin-3-yl)phenyl)thiazol-2-yl)(methyl)amino)-4-oxobutanoic acid]",127
9,"COc1ccc(-c2ccccc2-c2csc(N(C(=O)[C@@H](CC(=O)O)Cc3ccccc3)C3CC3)n2)cn1 [Compound 178, (R)-3-benzyl-4-(cyclopropyl(4-(2-(6-methoxypyridin-3-yl)phenyl)thiazol-2-yl)amino)-4-oxobutanoic acid]",30
10,"CN1CCOc2cc(-c3ccccc3-c3csc(N(C)C(=O)[C@@H](CC(=O)O)Cc4ccccc4)n3)cnc21 [Compound 182, (R)-3-benzyl-4-(methyl(4-(2-(4-methyl-3,4-dihydro-2H-pyrido[3,2-b][1,4]oxazin-7-yl)phenyl)thiazol-2-yl)amino)-4-oxobutanoic acid]",92
11,"O=C(O)C[C@@H](Cc1ccccc1)C(=O)N(c1nc(-c2cc(C(F)(F)F)ccc2Cl)cs1)C1CC1 [Compound 191, (R)-3-benzyl-4-((4-(2-chloro-5-(trifluoromethyl)phenyl)thiazol-2-yl)(cyclopropyl)amino)-4-oxobutanoic acid]",37
12,"CN1CCOc2cc(-c3ccccc3-c3csc(N(C(=O)[C@@H](CC(=O)O)CC4CCCC4)C4CC4)n3)cnc21 [Compound 194, (R)-3-(cyclopentylmethyl)-4-(cyclopropyl(4-(2-(4-methyl-3,4-dihydro-2H-pyrido[3,2-b][1,4]oxazin-7-yl)phenyl)thiazol-2-yl)amino)-4-oxobutanoic acid]",30
13,"C[C@H](c1ccccc1)[C@@H](CC(=O)O)C(=O)N(C)c1nc(-c2ccccc2Cl)cs1 [Compound 195, (3R,4S)-3-((4-(2-chlorophenyl)thiazol-2-yl)(methyl)carbamoyl)-4-phenylpentanoic acid]",2170
14,"O=C(O)C[C@@H](Cc1ccccc1)C(=O)Nc1ccc(-c2ccccc2Cl)c[n+]1[O-] [Compound 196, (R)-2-(2-benzyl-3-carboxypropanamido)-5-(2-chlorophenyl)pyridine 1-oxide]",1830
15,"O=C(O)C[C@@H](Cc1ccccc1)C(=O)Nc1cnc(-c2ccccc2Cl)cn1 [Compound 197, (R)-3-benzyl-4-((5-(2-chlorophenyl)pyrazin-2-yl)amino)-4-oxobutanoic acid]",1910
16,"COCCN(C(=O)[C@@H](CC(=O)O)Cc1ccccc1)c1nc(-c2ccccc2Cl)cs1 [Compound 199, (R)-3-benzyl-4-((4-(2-chlorophenyl)thiazol-2-yl)(2-methoxyethyl)amino)-4-oxobutanoic acid]",1380

# The next lines start with the values.
row,EC50 [nM],SMILES
1,1360,"O=C(O)C[C@@H](Cc1ccccc1)C(=O)N(CCOCc1ccccc1)c1nc(-c2ccccc2Cl)cs1 [Compound 201, (R)-3-benzyl-4-((2-(benzyloxy)ethyl)(4-(2-chlorophenyl)thiazol-2-yl)amino)-4-oxobutanoic acid]"
2,1510,"Cc1ccc(-c2csc(NC(=O)[C@@H](CC(=O)O)Cc3ccccc3)n2)o1 [Compound 202, (R)-3-benzyl-4-((4-(5-methylfuran-2-yl)thiazol-2-yl)amino)-4-oxobutanoic acid]"
3,1780,"O=C(O)C[C@@H](Cc1ccccc1)C(=O)Nc1cc(-c2cccc(C(F)(F)F)c2)n[nH]1 [Compound 203, (R)-3-benzyl-4-oxo-4-((3-(3-(trifluoromethyl)phenyl)-1H-pyrazol-5-yl)amino)butanoic acid]"
4,2320,"CN(C(=O)[C@@H](CC(=O)O)Cc1ccccc1)c1nc(-c2ccccc2-c2ccc(C#N)cc2)cs1 [Compound 206, (R)-3-benzyl-4-((4-(4′-cyano-[1,1′-biphenyl]-2-yl)thiazol-2-yl)(methyl)amino)-4-oxobutanoic acid]"
5,2910,"Cc1sc(NC(=O)[C@@H](CC(=O)O)Cc2ccccc2)c(C(N)=O)c1-c1ccc(Cl)cc1Cl [Compound 207, (3R)-3-benzyl-4-((3-carbamoyl-4-(2,4-dichlorophenyl)-5-methylthiophen-2-yl)amino)-4-oxobutanoic acid]"
6,2470,"Cc1nc(CC(CC(=O)O)C(=O)N(C)c2nc(-c3ccccc3Cl)cs2)cs1 (stereo not shown) [Compound 209, 4-((4-(2-chlorophenyl)thiazol-2-yl)(methyl)amino)-3-((2-methylthiazol-4-yl)methyl)-4-oxobutanoic acid]"
7,2680,"Cc1cc(CC(CC(=O)O)C(=O)N(C)c2nc(-c3ccccc3Cl)cs2)no1 (stereo not shown) [Compound 210, 4-((4-(2-chlorophenyl)thiazol-2-yl)(methyl)amino)-3-((5-methylisoxazol-3-yl)methyl)-4-oxobutanoic acid]"
8,341,"CN(C(=O)[C@@H](CC(=O)O)Cc1ccccc1)c1nc(-c2ccccc2-c2cnc3c(c2)CCC(=O)N3C)cs1 [Compound 216, (R)-3-benzyl-4-(methyl(4-(2-(8-methyl-7-oxo-5,6,7,8-tetrahydro-1,8-naphthyridin-3-yl)phenyl)thiazol-2-yl)amino)-4-oxobutanoic acid]"
9,126,"CN(C(=O)[C@@H](CC(=O)O)Cc1ccccc1)c1nc(-c2ccccc2-c2cnc3c(ccn3C)c2)cs1 [Compound 217, (R)-3-benzyl-4-(methyl(4-(2-(1-methyl-1H-pyrrolo[2,3-b]pyridin-5-yl)phenyl)thiazol-2-yl)amino)-4-oxobutanoic acid]"
